Tests used:
Assay type in all cases: in vivo
[1] = tested on: Botrytis cinerea (gray mold); test: Test 1 greenhouse foliar spray screen, gray mold on grape berries; settings: Botrytis cinerea, foliar; Test 1, spray on grape berries; disease control rating at 400 ppm / 100 ppm
[2] = tested on: Erysiphe graminis tritici (powdery mildew); test: Test 1 greenhouse foliar spray screen, powdery mildew on wheat; settings: Blumeria graminis, foliar, Test 1, foliar spray on wheat; disease control rating at 400 ppm / 100 ppm; read-out: POWD MDEW
[3] = tested on: Twospotted spider mites (Tetranychus urticae Koch); test: Mite/insect screen, SM; settings: Tetranychus urticae, foliar, percent mortality, foliar spray on squash, read-out: SM RESULTS %; for mortality at 200 ppm: rate 200 ppm; for mortality at 400 ppm: rate 400 ppm
Outline: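 Read-out: percent mortality after standard exposure periods. Test solutions were water dilutions of compound dissolved in acetone/alcohol (50:50) with emulsifier blends; leaves were sprayed to runoff on both surfaces and air-dried for one hour before exposure.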

[4] = tested on: Pseudoperonospora cubensis (downy mildew); test: Test 1 greenhouse foliar spray screen, downy mildew on squash; settings: Pseudoperonospora cubensis, foliar, Test 1, foliar spray on squash; disease control rating at 400 ppm / 100 ppm; read-out: DOWN MDEW
[5] = tested on: Pyricularia oryzae (rice blast); test: whole plant or invertebrate; settings: Pyricularia oryzae, foliar, read-out: RICE BLAST, Test 1, foliar spray on rice; disease control rating at 400 ppm / 100 ppm
[6] = tested on: Puccinia recondita tritici (leaf rust); test: Test 1 greenhouse foliar spray screen, leaf rust on wheat; settings: Puccinia recondita, foliar, Test 1, foliar spray on wheat; disease control rating at 400 ppm / 100 ppm
[7] = tested on: southern armyworm (Spodopetra eridania Cramer); test: Mite/insect screen, SAW; settings: Spodoptera eridania, foliar, percent mortality, foliar spray on squash, read-out: SAW RESULTS %; for mortality at 200 ppm: rate 200 ppm; for mortality at 400 ppm: rate 400 ppm
Outline: (§1)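 First, each compound was dissolved in an emulsifier-containing acetone/alcohol mixture and diluted with water. Next, leaves were sprayed until runoff and left to dry for an hour. For southern armyworm, two excised uninfested leaves went into a Petri dish with larvae; percent mortality followed standard exposure periods.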

corn rootworm = test: Mite/insect screen, CRW; settings: percent mortality, read-out: CRW RESULTS %; for mortality at 12 ppm: CRW rate 12.00 ppm; for mortality at 24 ppm: CRW rate 24.00 ppm
Outline: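 Stock in acetone:alcohol 1:1 + TOXIMUL R 23 g/L + TOXIMUL S 13 g/L; diluted with water to indicated concentrations; mortality (%) after standard exposure.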

[8] = tested on: melon aphids (Aphis gossypii Glover); test: Mite/insect screen, MA; settings: Aphis gossypii, foliar, percent mortality, foliar spray on squash, read-out: MA RESULTS %; for mortality at 200 ppm: rate 200 ppm; for mortality at 400 ppm: rate 400 ppm
Outline: as §1

In the case of `C=CCCCOc1ccnc2c(F)cccc12` [Example 267, 8-fluoro-4-(4-pentenoxy)quinoline], the pest or weed control at 400 ppm [1] is reported as 0 to 19%, the pest or weed control at 400 ppm [2] is reported as 90 to 100% and the mortality at 200 ppm [3] is reported as 40%. It also gave a mortality at 400 ppm [3] of 100%, a pest or weed control at 400 ppm [4] of 20 to 89% and a pest or weed control at 400 ppm [5] of 90 to 100%. For the same molecule, the pest or weed control at 400 ppm [6] was 90 to 100%, the mortality at 200 ppm [7] was 0% and the mortality at 400 ppm [7] was 0%. For the same molecule, the mortality at 12 ppm (corn rootworm) was 0%, the mortality at 24 ppm (corn rootworm) was 0% and the mortality at 200 ppm [8] was 20%. The mortality at 400 ppm [8] was 100%.
In the case of `Fc1cccc2c(NCCCCc3ccccc3)ccnc12` [Example 268, 8-fluoro-N-(4-phenylbutyl)-4-quinolinamine], the pest or weed control at 400 ppm [1] is reported as 0 to 19%, the pest or weed control at 400 ppm [2] is reported as 20 to 89% and the mortality at 200 ppm [3] is reported as 0%. For the same molecule, the mortality at 400 ppm [3] was 80%, the pest or weed control at 400 ppm [4] was 90 to 100% and the pest or weed control at 400 ppm [5] was 90 to 100%. For the same molecule, the pest or weed control at 400 ppm [6] was 90 to 100%, the mortality at 200 ppm [7] was 0% and the mortality at 400 ppm [7] was 0%. For the same molecule, the mortality at 12 ppm (corn rootworm) was 0%, the mortality at 24 ppm (corn rootworm) was 0% and the mortality at 200 ppm [8] was 0%. It also gave a mortality at 400 ppm [8] of 0%.
Molecule `Fc1cccc2c(OCCc3ccccc3Cl)ccnc12` [Example 269, 4-[2-(2-chlorophenyl)ethoxy]-8-fluoroquinoline] has a pest or weed control at 400 ppm [1] of 0 to 19%, a pest or weed control at 400 ppm [2] of 90 to 100% and a mortality at 400 ppm [3] of 0%. For the same molecule, the pest or weed control at 400 ppm [4] was 90 to 100%, the pest or weed control at 400 ppm [5] was 90 to 100% and the pest or weed control at 400 ppm [6] was 90 to 100%. It also gave a mortality at 200 ppm [7] of 0%, a mortality at 400 ppm [7] of 0% and a mortality at 12 ppm (corn rootworm) of 0%. For the same molecule, the mortality at 24 ppm (corn rootworm) was 40%, the mortality at 200 ppm [8] was 30% and the mortality at 400 ppm [8] was 0%.
In the case of `CCC(COc1ccnc2c(F)cccc12)c1ccc(-c2ccccc2)cc1` (centres unmarked) [Example 270, 4-[2-[1,1'-biphenyl]-4-ylbutoxy]-8-fluoroquinoline], the pest or weed control at 400 ppm [1] is reported as 0 to 19%, the pest or weed control at 400 ppm [2] is reported as 0 to 19% and the mortality at 200 ppm [3] is reported as 0%. For the same molecule, the mortality at 400 ppm [3] was 80%, the pest or weed control at 400 ppm [4] was 0 to 19% and the pest or weed control at 400 ppm [5] was 20 to 89%. The pest or weed control at 400 ppm [6] was 0 to 19%, the mortality at 200 ppm [7] was 20% and the mortality at 400 ppm [7] was 0%. The mortality at 12 ppm (corn rootworm) was 0%, the mortality at 24 ppm (corn rootworm) was 0% and the mortality at 200 ppm [8] was 0%. For the same molecule, the mortality at 400 ppm [8] was 0%.
`CC(C)(C)c1ccc(CCCNc2ccnc3c(F)cccc23)cc1` [Example 271, N-[3-[4-(t-butyl)phenyl]propyl]-8-fluoro-4-quinolinamine] showed a pest or weed control at 400 ppm [1] of 0 to 19%, a pest or weed control at 400 ppm [2] of 0 to 19% and a mortality at 200 ppm [3] of 0%. It also gave a mortality at 400 ppm [3] of 0%, a pest or weed control at 400 ppm [4] of 90 to 100% and a pest or weed control at 400 ppm [5] of 90 to 100%. For the same molecule, the pest or weed control at 400 ppm [6] was 20 to 89%, the mortality at 200 ppm [7] was 0% and the mortality at 400 ppm [7] was 0%. The mortality at 12 ppm (corn rootworm) was 0%, the mortality at 24 ppm (corn rootworm) was 0% and the mortality at 200 ppm [8] was 0%. For the same molecule, the mortality at 400 ppm [8] was 0%.
`Fc1cccc2c(OCCCCOc3ccccc3)ccnc12` [Example 272, 8-fluoro-4-(4-phenoxybutoxy)quinoline] gave a pest or weed control at 400 ppm [1] of 0 to 19%, a pest or weed control at 400 ppm [2] of 0 to 19% and a mortality at 200 ppm [3] of 0%. It also gave a mortality at 400 ppm [3] of 20%, a pest or weed control at 400 ppm [4] of 20 to 89% and a pest or weed control at 400 ppm [5] of 20 to 89%. It also gave a pest or weed control at 400 ppm [6] of 0 to 19%, a mortality at 200 ppm [7] of 0% and a mortality at 400 ppm [7] of 0%. It also gave a mortality at 12 ppm (corn rootworm) of 0%, a mortality at 24 ppm (corn rootworm) of 0% and a mortality at 200 ppm [8] of 0%. The mortality at 400 ppm [8] was 0%.
`CC(=O)Oc1ccc(CCN(C(C)=O)c2ccnc3c(F)cccc23)cc1` [Example 273, N-[2-(4-acetoxyphenyl)ethyl]-N-(8-fluoro-4-quinolinyl)acetamide] gave a pest or weed control at 400 ppm [1] of 0 to 19%, a pest or weed control at 400 ppm [2] of 20 to 89% and a mortality at 400 ppm [3] of 0%. For the same molecule, the pest or weed control at 400 ppm [4] was 20 to 89%, the pest or weed control at 400 ppm [5] was 90 to 100% and the pest or weed control at 400 ppm [6] was 20 to 89%. For the same molecule, the mortality at 400 ppm [7] was 0%, the mortality at 24 ppm (corn rootworm) was 0% and the mortality at 400 ppm [8] was 0%.

Source: patent publication EP0326331B1, “Substituted quinolines and cinnolines” (Dow AgroSciences LLC, priority 1988, dated 1989)
